Results published in patent US9149038B2, “4-amino-6-(heterocyclic)picolinates and 6-amino-2-(heterocyclic)pyrimidine-4-carboxylates and their use as herbicides” (Dow AgroSciences LLC, priority 2013, dated 2015).
Read-outs that look alike come from different tables or passages of the source.

Assays:
[1] = test system: Key Broadleaf Weed and Crop Species; experiment: Post-Emergent Test II: postemergent herbicidal activity, visual rating after 14 d (Table 7); type: in vivo; details: post-emergence, 336 h; for pest or weed control at 35 g/ha: 35 g ai/ha; for pest or weed control at 70 g/ha: 70 g ai/ha; for pest or weed control at 140 g/ha: 140 g ai/ha
How it was run: (§1)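 Plants were raised in a greenhouse for 7-21 d and treated once at the first or second true leaf stage. Compounds, dissolved in 97:3 acetone:DMSO then diluted into an aqueous acetone/isopropanol/crop oil/Triton X-155 carrier, were applied by overhead track sprayer at 187 L/ha. After 14 d with subirrigation, injury was scored visually from 0 (none) to 100 (complete kill).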

[2] = test system: Key Grass and Sedge Weeds as well as Grass Crops; experiment: Post-Emergent Test II: postemergent herbicidal activity, visual rating after 14 d (Table 8); type: in vivo; details: post-emergence, 336 h; for pest or weed control at 35 g/ha: 35 g ai/ha; for pest or weed control at 70 g/ha: 70 g ai/ha; for pest or weed control at 140 g/ha: 140 g ai/ha
How it was run: as §1

[3] = ABUTH: velvetleaf (Abutilon theophrasti), read-out: Visual Growth Reduction (%) 14 Days After Application ABUTH
[4] = AMARE: redroot pigweed (Amaranthus retroflexus), read-out: Visual Growth Reduction (%) 14 Days After Application AMARE
[5] = BRSNN: oilseed rape, canola (Brassica napus), read-out: Visual Growth Reduction (%) 14 Days After Application BRSNN
[6] = CHEAL: lambsquarters (Chenopodium album), read-out: Visual Growth Reduction (%) 14 Days After Application CHEAL
[7] = EPHHL: wild poinsettia (Euphorbia heterophylla), read-out: Visual Growth Reduction (%) 14 Days After Application EPHHL
[8] = HELAN: sunflower (Helianthus annuus), read-out: Visual Growth Reduction (%) 14 Days After Application HELAN
[9] = barnyardgrass (Echinochloa crus-galli), read-out: Visual Growth Reduction (%) 14 Days After Application, ECHCG
[10] = giant foxtail (Setaria faberi), read-out: Visual Growth Reduction (%) 14 Days After Application, SETFA
[11] = maize, corn (Zea mays), read-out: Visual Growth Reduction (%) 14 Days After Application, ZEAMX
[12] = rice (Oryza sativa), read-out: Visual Growth Reduction (%) 14 Days After Application, ORYSA
[13] = wheat, spring (Triticum aestivum), read-out: Visual Growth Reduction (%) 14 Days After Application, TRZAS
[14] = yellow nutsedge (Cyperus esculentus), read-out: Visual Growth Reduction (%) 14 Days After Application, CYPES

COC(=O)c1nc(-c2ccc3c(c2)SCO3)c(F)c(N)c1Cl [Compound 105]
95 to 100%: pest or weed control at 140 g/ha [1, 8]
60 to 74%: pest or weed control at 140 g/ha [1, 5] | pest or weed control at 140 g/ha [1, 6] | pest or weed control at 35 g/ha [1, 7] | pest or weed control at 70 g/ha [2, 9]
30 to 44%: pest or weed control at 70 g/ha [1, 5] | pest or weed control at 35 g/ha [1, 6] | pest or weed control at 70 g/ha [1, 6] | pest or weed control at 140 g/ha [2, 10]
75 to 84%: pest or weed control at 70 g/ha [1, 7] | pest or weed control at 140 g/ha [2, 9]
45 to 59%: pest or weed control at 140 g/ha [1, 4] | pest or weed control at 35 g/ha [2, 9]
0 to 29%: pest or weed control at 35 g/ha [1, 3] | pest or weed control at 70 g/ha [1, 3] | pest or weed control at 140 g/ha [1, 3] | pest or weed control at 35 g/ha [1, 4] | pest or weed control at 70 g/ha [1, 4] | pest or weed control at 35 g/ha [1, 5] | pest or weed control at 35 g/ha [2, 10] | pest or weed control at 70 g/ha [2, 10] | pest or weed control at 35 g/ha [2, 11] | pest or weed control at 70 g/ha [2, 11] | pest or weed control at 140 g/ha [2, 11] | pest or weed control at 35 g/ha [2, 12] | pest or weed control at 70 g/ha [2, 12] | pest or weed control at 140 g/ha [2, 12] | pest or weed control at 35 g/ha [2, 13] | pest or weed control at 70 g/ha [2, 13] | pest or weed control at 140 g/ha [2, 13] | pest or weed control at 35 g/ha [2, 14] | pest or weed control at 70 g/ha [2, 14] | pest or weed control at 140 g/ha [2, 14]
85 to 94%: pest or weed control at 140 g/ha [1, 7] | pest or weed control at 35 g/ha [1, 8] | pest or weed control at 70 g/ha [1, 8]
